This note sets out measurements from US9302993B2, “8-hydroxy quinoline derivatives” (PRANA BIOTECHNOLOGY LIMITED, priority 2002, dated 2016).

A short description of series [1]: Mice plasma concentration. Type of series: in vivo.
The nature of a further series: B:P Ratio. Type of series: in vivo.
Series [2] deals with transgenic Huntington's mice (R6/2). In words: PBT1033 effects in transgenic Huntington's mice (Example 22). Type of series: in vivo, mouse. From the text: This example describes an in vivo study of PBT1033 in transgenic Huntington's mice (R6/2) using the procedure of Nyuyen, Harby and Massa, 2005. During this study, 44 samples were collected for behavioral tests, including Rotarod performance, clasping tests, body weight and lifespan observations, and 24 samples were utilized for pathology assessments, including brain sectioning and staining for measuring lateral ventricle size, brain weight, whole brain western blotting for mutant Htt aggregate accumulation, and immunocytochemistry for Htt aggregates.
GROUP A: 10+6 (pathology) R6/2 MICE, treated daily with PBT1033
GROUP B: 10+6 (pathology) R6/2 MICE, treated daily with SSV solution
GROUP C: 12+6 (pathology) wild type (WT) mice, treated daily with PBT1033
GROUP D: 12+6 (pathology) WT mice, treated daily with SSV solution
3. PBT1033 in SSV solution was orally administered to mice at 0.6 mg/0.1 ml ([…])/20 g. The PBT1033 solution was taken up into a 1-cc syringe attached to a feeding needle and the drug was delivered by oral gavage.
4. Rotarod was assessed as described by Hockly et al., the contents of which are incorporated by reference, with the modification that the SDI Rota—Rod (San Diego Instruments, San Diego), was set to linearly increase in speed to 40 rpm in 4-min ramp time. Performance is at 4th, 8th, 10th, and 12th week, with three days (one for training) per period and three times per day.
5. Body Weight: once per week, start at age 3 weeks.
6. Clasping testing and Behavioral observation: once per week from 5th week and daily during the drug treating.
7. Lifespan observation: Group A and B were treated until they died.
8. Brain lateral ventricle size: mouse brain perfusion, sectioning and staining at age 10 weeks. Mice brains were perfused and fixed with 4% PFA and stained with H&E.
9. Whole Brain Western Blotting: whole mouse brain was homogenized in buffer (10 mM Tris HCl (pH 7.4) 11 mM EDTA Na2/1% Triton X100/complete protease inhibitor mixture and then centrifuged at 7000×g for 90 s. The supernatant was boiled in SDS sample buffer for 5 mm at 100° C.
40 micrograms of total protein was run on a 10% SDS gel with a 4% stacking gel. Antibody: anti-GAPDH (1:5000), EM48 anti-Htt antibody (1:1000)
10. Brain weight: brain weighed before freezing at −80° C.
11. Immunohistochemistry was performed in accordance with the procedure in Assay 15, hereinabove.

The nature of series [3]: Toxicity at 30 mg/kg (In vivo Efficacy and Safety Profile).
Series [4] has as its target T1, hydrogen peroxide generation by Aβ in the presence of copper (Homo sapiens, UniProt P05067).
T1 construct: The reaction solutions contained Aβ 1-42 at concentrations in the range of 50 nM to 1 μM
In words: Fluorometric H2O2 assay (Assay 1). Format: biochemical. The conditions noted are these: Aβ 1-42 with Cu-Gly, DCF/HRP, 37 C 60 min; several values in one cell = repeat determinations; read-out: Peroxide IC50. The essentials: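 Aβ1-42 (50 nM–1 μM) with Cu-glycine (2 Cu-Gly : 1 Aβ) and a reductant (dopamine 5 μM or ascorbic acid) was incubated 60 min at 37 °C in PBS pH 7.4 with test compound. H2O2 was detected with 100 μM deacetylated DCF and 0.1 μM HRP by fluorescence against H2O2 standards.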

For a further series, the system named is healthy volunteers. The experiment in a line: Clinical study of 1033, single and multiple oral doses (Example 23). Type of series: in vivo. On the procedure: 1033 was administered to healthy volunteers in a 2-part study comprising single dose administration (Stage A) and multidose administration (Stage B).
The objectives of the following trials were to determine the safety, tolerability and pharmacokinetics of single and multiple oral doses of 1033 in healthy volunteers. Double-blind studies were conducted. The protocol included safety measures designed to capture the potential human adverse effects. A total of 65 healthy subjects have been exposed to doses of 1033 (41 single dose, 24 multiple dose).
In Stage A, fifty five (55) healthy male subjects aged 18-50 years were randomised (3:1) to receive a single oral dose of either placebo or 1033 at one of 7 dose levels (25, 50, 100, 200, 300, 500 or 800 mg).
In Stage B, thirty two (32) healthy male and female subjects aged 45-75 years (eight subjects per dose level) were randomised (3:1) to receive a daily oral dose over 7 consecutive days of either placebo or 1033 at one of 4 dose levels (200, 400, 600 or 800 mg). Each dose level comprised of 4 males and 4 females; the randomisation schedule ensuring that 1 subject/sex received placebo and 3 subjects/sex received 1033.

T1 sequence (P05067 672-713 limits assumed): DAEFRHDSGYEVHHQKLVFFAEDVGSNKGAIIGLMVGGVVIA

For `CN(C)Cc1ccc2c(Cl)cc(Cl)c(O)c2n1.Cl` [compound 1033, 5,7-Dichloro-2-dimethylaminomethyl-quinolin-8-ol hydrochloride], in series [1], the Mice plasma concentration result is given as “Up to 500 ng/ml”. In addition, the “B:P Ratio” value turned out to be 12.85 in the series “B:P Ratio” (at 5 min) and 9.45 in “B:P Ratio” (at 60 min). Besides, in series [2] (Group A (PBT1033) compared with Group B (SSV)), the life span entry is listed as “survived significantly longer”. In addition, the “clasping latency and duration” value in series [2] (Group B (SSV) compared with Group A (PBT1033)) was “significantly greater”. In addition, in series [2] (Group B (SSV) vs A, C and D groups), the body weight entry was “significantly decreased”. The compound also showed a brain weight in series [2] (R6/2 mice, Group A) of 0.373±0.0228. Further, the rotarod performance time was 28 ± 4 s in series [2] (R6/2 mice, Group A, 10th week) and 26 ± 4 s in series [2] (R6/2 mice, Group A, 12 week). This compound also yielded a Lateral ventricle area in series [2] (R6/2 mice, Group A, age 10 weeks) of 0.36±0.086 mm^2. The “mutant Huntingtin (Htt) protein aggregates, Western analysis” value in series [2] (whole brain, HDexon1 mice) is “not in treated animals”. Also, in series [3], the “Toxicity at 30 mg/kg” value is reported as “None”. In series [4], the IC50 worked out at 0.38 µM. For the same compound, in the series with healthy volunteers (Stage A, healthy male volunteers aged 18 to 50 years, 25-800 mg), the “tolerability, single oral dose” value was “well tolerated”. Further, the “clinical laboratory evaluations and physical assessments” value in the series on healthy volunteers (Stage A, single oral dose) is “No clinically significant or relevant changes”. Besides, the “incidence of adverse events” value in the series with healthy volunteers (Stage A, single oral dose) came out at 43.9%. The “tolerability, multiple dose” value in the series with healthy volunteers (Stage B, healthy elderly subjects, daily oral dose over 7 days, 200-800 mg) was “generally well tolerated”.
As to `Cn1cnc(CCNC(=O)c2ccc3c(Cl)cc(Cl)c(O)c3n2)c1` [compound 1050, 5,7-dichloro-8-hydroxyquinoline-2-carboxylic acid [2-(1-methyl-1H-imidazol-4-yl)-ethyl]-amide], the IC50 in series [4] amounted to 0.28 µM.
